Data reported in patent US9713605B2, “Ameliorative or preventive effect of Antrodia cinnamomea in arthritis, cartilage destruction, or chondrocyte death” (Simpson Biotech Co., Ltd., priority 2011, dated 2017).

Key:
[1] = test system: collagen antibody-induced arthritis (CAIA) in BALB/c mice; assay: Disease activity score (macroscopic scoring of four limbs) in acute stage of CAIA; type: in vivo; settings: oral once daily; for disease activity score (maximum 60 per mouse): day 10, mean±SEM, arthritis group 53.71±2.763
From the text: (§1) Male BALB/cByJNarl (BALB/c) mice were purchased at age six weeks from National Laboratory Animal Center (Taiwan) and subsequently bred and maintained under specific pathogen-free conditions in the Laboratory Animal Center of National Defense Medical Center (Taipei, Taiwan).
(§2) An arthritogenic monoclonal antibody (mAb) cocktail and lipopolysaccharide (LPS) were purchased from Immuno-Biological Laboratories (Hamburg, Germany). Arthritis was induced by the method of Terato et al. (Terato et al., Induction of arthritis with monoclonal antibodies to collagen. J Immunol. 1992 Apr. 1; 148(7):2103-8), using an arthritogenic mAb cocktail that contained four mAbs (F10, A2, D8, and D1) in equal amounts and using LPS as adjuvant. Three clones (F10, A2, and D8) were of type IgG2a, and one clone (D1) was type IgG2b. To induce arthritis, each mouse was injected intravenously with 2 mg of anti-CII mAbs followed by an intraperitoneal injection of 50 μg (BALB/c background) LPS (Escherichia coli 0111:B4) three days later. Isotype IgG (anti-mouse IgG, 2 mg, Jackson Lab.) supplied with LPS and only LPS induction groups were applied in same condition.
(§3) Arthritis development was monitored in the four limbs using a macroscopic scoring system. Briefly, one point was given for each swollen or red toe; one point for each swollen joint (metatarsal-phalangeal joints, metacarpal-phalangeal joints, proximal interphalangeal joints, and distal interphalangeal joints); and five points for a swollen ankle (maximum score=15 per limb and 60 per mouse) (Nandakumar et al., Collagen type II (CII)-specific antibodies induce arthritis in the absence of T or B cells but the arthritis progression is enhanced by CII-reactive T cells. Arthritis Res. Ther. 6 (2004), R544-R550). The mice were examined on days 0, 3, 7, 10 and 14 after the mAb injection. The thickness of each paw was measured in a noncontact manner using a Simplified Geometry Measurement System (Advanced Design Research Technology Co., Ltd). Images of the paws of each mouse were recorded three times (Chia et al., A noncontact footpad thickness assay to evaluate rheumatoid disease. Rheumatol Int. 2010 February; 30(4):547-50). One trained researcher who was blinded to group treatments evaluated the image data independently.
(§4) Data were analyzed by the Mann-Whitney U test and were expressed as mean±SEM. A P value <0.05 was considered significant.
(§5) In each group, the subjects were given the sample once daily ([…]) since day 0 to day 9 via oral intake and the subjects was administrated before the antibody and LPS injection.

IL-1β = assay: Relative expression level of IL-1β mRNA in footpad (quantitative PCR) in CAIA; type: in vivo, mice; settings: day 10, mean±SEM, arthritis group 41.13±6.465
From the text: as §2
Total RNA was isolated using the Trizol method. Footpad tissues were homogenized in Trizol lysis buffer followed by chloroform extraction (Life Technologies). The RNA was eluted with 20 μl of RNase-free water. All RNA was quantified by spectrophotometer, and the optical density (OD) 260/280 nm ratio was determined. For cDNA synthesis, 5 μg total RNA was reverse transcribed at 50° C. for 60 min using 200 units of Superscript III reverse transcriptase (Invitrogen). The primer sequence was as follows: IL1-β, forward primer (5′-[…]), reverse primer (5′-CTCGCAGCAGCACATCAAC); and GAPDH, forward primer (5′-[…]), reverse primer (5′-[…]). The SYBR Green master mix kit (Bio-Rad) was used for all reactions with real-time PCR. Briefly, PCR was performed as follows: 94° C. for 2 min followed by 40 cycles of denaturation; annealing; and extension at 94° C. for 15 s, 64° C. for 30 s, and 72° C. for 45 s; and final extension at 72° C. for 10 min. The PCR reaction was performed in triplicate for each sample for all the products and for the GAPDH control. Ratios for each product relative to GAPDH mRNA were calculated for each sample. The data presented are expressed as the fold-increase or fold-decrease in mRNA level. For all real-time PCR assays, the products were run out on a gel to confirm the presence of a single band.
as §4, §5

[2] = test system: collagen antibody-induced arthritis (CAIA) in BALB/c mice; assay: Histopathological arthritis score of ankle joints in CAIA; type: in vivo; settings: ankle joint harvested on day 10; mean±SEM; arthritis group 4.178±0.2023
From the text: as §2
The ankle joints were fixed in 10% formalin, decalcified, trimmed, and embedded. Sections were prepared from the tissue blocks and stained with hematoxylin and eosin. Histopathological scoring was performed as described below. Ankle joints of arthritic mice were given arthritis scores of 0, 1, 2, 3, 4, and 5 to describe the arthritis according to the following criteria: 0, normal; 1, minimal infiltration of polymorphonuclear leukocytes in the periarticular area; 2, mild infiltration; 3, moderate infiltration; 4, marked infiltration; and 5, severe infiltration (Doherty, 2001. Risk factors for progression of knee osteoarthritis. Lancet 358:775-6). Three independent observers scored each slide, and the average score was used.
as §4, §5

[3] = test system: collagen antibody-induced arthritis (CAIA) in BALB/c mice; assay: Footpad thickness change in acute stage of CAIA; type: in vivo; settings: day 10; oral once daily day 0 to day 9; mean±SEM; arthritis group 1.0446±0.0369
From the text: as §1, §2, §3, §4, §5

[4] = test system: cartilage destruction in ankle joints of arthritic mice; assay: Histopathological cartilage destruction score of ankle joints in CAIA; type: in vivo; settings: ankle joint harvested on day 10; mean±SD; arthritis group 2.063±0.776
From the text: as §2
The ankle joints were fixed in 10% formalin, decalcified, trimmed, and embedded. Sections were prepared from the tissue blocks and stained with hematoxylin and eosin. Histopathological scoring was performed as described below. […] Two independent observers scored each slide, and the average score was used.
(§6) Data were analyzed by the t test and are expressed as mean±SD. […]

[5] = test system: chondrocyte death in ankle joints of arthritic mice; assay: Histopathological chondrocyte death score of ankle joints in CAIA; type: in vivo; settings: ankle joint harvested on day 10; mean±SD; arthritis group 1.929±0.450
From the text: as §2, with “Isotype IgG (anti-mouse IgG, 2 mg, Jackson Lab.) supplied with LPS and only LPS induction groups were applied in same condition.” left out
Ankle joints of arthritic mice were given chondrocyte death scores of 0, 1, 2, and 3 to describe the chondrocyte death according to the following criteria: 0, normal (FIG. 7A); 1, mild chondrocyte death (around less than ⅓ chondrocyte death in cartilage of all sections, FIGS. 7B, 7C); 2, moderate chondrocyte death (between ⅓ to ⅔ area chondrocyte death in the cartilage, FIG. 7D); 3, severe chondrocyte death (more than ⅔ chondrocyte death in the cartilage, FIG. 7E). Two independent observers scored each slide, and the average score was used.
as §6

CC(C)=CCOc1ccc(C2=C(CC(C)C)C(=O)OC2=O)cc1 [A group, 3-isobutyl-4-[4-(3-methyl-2-butenyloxy)phenyl]furan-2,5-dione]
disease activity score (maximum 60 per mouse) [1]: 46.0±2.537 | relative expression levels of IL-1β (relative to GAPDH mRNA) (IL-1β): 39.61±3.849 | arthritis score (histopathological, 0-5) [2]: 2.093±0.541 | footpad thickness (average increase compared to baseline) [3]: 0.840±0.139 mm

CC(C)=CCOc1ccc(C2=C(CC(C)C)C(=O)N(O)C2=O)cc1 [C group, 3-isobutyl-4-[4-(3-methyl-2-butenyloxy)phenyl]-1H-pyrrol-1-ol-2,5-dione]
disease activity score (maximum 60 per mouse) [1]: 47.718±3.581 | cartilage destruction score (0-3) [4]: 1.000±0.467 | relative expression levels of IL-1β (relative to GAPDH mRNA) (IL-1β): 20.714±4.751 | arthritis score (histopathological, 0-5) [2]: 3.25±0.421 | chondrocyte death score (0-3) [5]: 0.58±0.555 | footpad thickness (average increase compared to baseline) [3]: 0.8605±0.098 mm

CC(C)=CCOc1ccc([C@H]2C(=O)N(O)C(=O)[C@@H]2CC(C)C)cc1 (relative stereo) [D group, 3R*,4S*-1-hydroxy-3-isobutyl-4-[4-(3-methyl-2-butenyloxy)phenyl]pyrrolidine-2,5-dione]
disease activity score, difference versus arthritis group ([1]; day 7): significant difference | disease activity score (maximum 60 per mouse) [1]: 39.687±5.238 | cartilage destruction score (0-3) [4]: 1.167±0.144 | relative expression levels of IL-1β (relative to GAPDH mRNA) (IL-1β): 10.141±2.765 | arthritis score (histopathological, 0-5) [2]: 3.458±0.559 | chondrocyte death score (0-3) [5]: 1.042±0.439 | footpad thickness (average increase compared to baseline) [3]: 0.729±0.114 mm

CC(C)=CCOc1ccc(C2=C(CC(C)C)C(=O)NC2=O)cc1 [B group, 3-isobutyl-4-[4-(3-methyl-2-butenyloxy)phenyl]-1H-pyrrol-2,5-dione]
disease activity score (maximum 60 per mouse) [1]: 45.58±4.818 | relative expression levels of IL-1β (relative to GAPDH mRNA) (IL-1β): 16.873±4.82 | footpad thickness (average increase compared to baseline) [3]: 0.837±0.177 mm
